PubChem BioAssay AID1549 (Sanford-Burnham Center for Chemical Genomics, 2009)
The source made the active and inactive calls. No rule for the calls is given here.

Target: Influenza A virus M2 proton channel (A/TW/4845/1999 H1N1)
Assay: M2 proton channel binding, NMR based, influenza A virus H1N1 strain (AID 1549)
Conditions: NMR binding screen, M2 protein

SMILES | Kd
O=CN1CCN(C2CC(=O)N(c3ccccc3)C2=O)CC1 (stereo unspecified) | > 4 mM (inactive)
CC(C)c1ccc2c(c1)CCC1C(C)(C(N)=O)CCCC21C (stereo unspecified) | > 4 mM (inactive)
Cc1ccc(S(C)(=O)=O)s1 | > 4 mM (inactive)
CSc1ccccc1NC(=O)c1ccncc1 | > 4 mM (inactive)
CCc1cc(=O)[nH]c(SCC(=O)NCCOC)n1 | > 4 mM (inactive)
COc1ccc(C)cc1S(=O)(=O)Nc1ccccc1C | > 4 mM (inactive)
CCOC(=O)c1c(C)nc2ncccn12 | > 4 mM (inactive)
Cc1cc(C)n2nc(C(=O)NCc3ccco3)nc2n1 | > 4 mM (inactive)
O=C(O)C1CCCN1Cc1c[nH]c2ccccc12 (stereo unspecified) | > 4 mM (inactive)
O=C1Nc2ccccc2C12OCCO2 | > 4 mM (inactive)
Cc1c(C(=O)OC(C)C)[nH]c2c1C(=O)CCC2 | > 4 mM (inactive)
c1ccc(CCc2nc(-c3cccnc3)no2)cc1 | > 4 mM (inactive)
O=C(Nc1cnccn1)c1cccc(C(F)(F)F)c1 | > 4 mM (inactive)
COc1nc(C#N)c(N2CCOCC2)o1 | > 4 mM (inactive)
NC1CCN(Cc2ccccc2)CC1 | > 4 mM (inactive)
OCc1cc2ccccc2o1 | > 4 mM (inactive)
S=C(NCc1ccco1)NN1CCOCC1 | > 4 mM (inactive)
COCC(=O)Nc1ccc(F)cc1F | > 4 mM (inactive)
Cn1[nH]c(C(F)(F)F)cc1=O | > 4 mM (inactive)
NC1=NC(=O)C(CC(=O)Nc2ccccc2F)S1 (stereo unspecified) | > 4 mM (inactive)
Nc1ccc2nccnc2c1 | > 4 mM (inactive)
CC(=O)Nc1ccccc1OCC(N)=O | > 4 mM (inactive)
Cc1cc(=O)oc2cc(O)c(O)cc12 | > 4 mM (inactive)
O=C(O)c1cncc(-c2cccs2)c1 | > 4 mM (inactive)
O=C(Nc1ccon1)c1cccc(C(F)(F)F)c1 | > 4 mM (inactive)
CCOC(=O)CSCC(=O)Nc1nccs1 | > 4 mM (inactive)

SMILES | Kd
Cc1cc(=O)cc(C)n1-c1ccccc1N1CCOCC1 | > 4 mM (inactive)
Cc1cc(C(=O)NCc2cccs2)c(C)o1 | > 4 mM (inactive)
CC(C)CCCC1(C)C=Cc2c(O)c3c(c(CCC(C)C)c2O1)OC12C(CC4CC1C(C)(C)OC2(CCC(C)C(=O)O)C4O)C3=O (stereo unspecified) | > 4 mM (inactive)
CNC(=O)C1=NCCCc2cc(OC)c(OC)cc21 | > 4 mM (inactive)
CN1CCN(c2nc3c(c(=O)[nH]2)CCCC3)CC1 | > 4 mM (inactive)
O=C1c2cccnc2C(=O)N1Cc1ccc2c(c1)OCO2 | > 4 mM (inactive)
CCOC(=O)CNC(=O)CSc1nnc(C)c(=O)[nH]1 | > 4 mM (inactive)
O=C(O)C12CC3CC(CC(O)(C3)C1)C2 | > 4 mM (inactive)
CC12CN([N+](=O)[O-])C3(C(N)=O)CC1CCC23C (stereo unspecified) | > 4 mM (inactive)
Nc1cc(N)nc(SCc2cccnc2)n1 | > 4 mM (inactive)
CCN1C(=O)c2cccc3c(S(N)(=O)=O)ccc1c23 | > 4 mM (inactive)
O=C(O)CCS(=O)(=O)c1ccccc1 | > 4 mM (inactive)
O=c1[nH]cc(N2CCCCC2)c(=O)[nH]1 | > 4 mM (inactive)
CC1(C)Cn2c(nnc2-c2ccccc2)S1 | > 4 mM (inactive)
NNc1ncnc2sccc12 | > 4 mM (inactive)
CC(=O)Nc1ccc2c(c1)n(C)c(=O)n2C | > 4 mM (inactive)
COCCn1c(N)nc2c1c(=O)[nH]c(=O)n2C | > 4 mM (inactive)
O=C1CSC(=O)N1c1cccc(O)c1 | > 4 mM (inactive)
Nc1cncc(C(=O)O)c1 | > 4 mM (inactive)
Cn1c(CO)nc2cc(N)ccc21 | > 4 mM (inactive)
Cc1cc(C)n(-c2nncn2N)n1 | > 4 mM (inactive)
Cc1cc(C(=O)N2CCN(c3ccccn3)CC2)c(C)o1 | > 4 mM (inactive)
NCc1ccc(-c2cccs2)cc1 | > 4 mM (inactive)
Cn1ncc(N2CCOCC2)c(Cl)c1=O | > 4 mM (inactive)
O=C(Nc1ccon1)c1ccc2c(c1)OCO2 | > 4 mM (inactive)
